Tested on: 777334-354-R2-J4-PDC tumor spheroids with HUVEC/MSC, viability
Test: Anticancer human tumor 777334-354-R2-J4-PDC patient-derived pancreatic adenocarcinoma cell line growth inhibition [GQUAD]
Details: for IC50: curve of first compound; for viability, T/C: stronger effect = lower value
In short: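 Tumor cells were grown as complex spheroids with HUVEC endothelial cells and mesenchymal stem cells as stroma. G-quadruplex stabilizers were combined with targeted agents over half-log dilutions from near the clinical Cmax, or from 10 microM.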

[1] = second compound 0.0316 µM, first compound 0.0316 µM
[2] = second compound 0.0316 µM, first compound 0.1 µM
[3] = second compound 0.0316 µM, first compound 0.316 µM
[4] = second compound 0.0316 µM, first compound 1 µM
[5] = second compound 0.0316 µM, first compound 3.16 µM
[6] = second compound 0.0316 µM, first compound 10 µM
[7] = second compound 0.1 µM, first compound 0.0316 µM
[8] = second compound 0.1 µM, first compound 0.1 µM
[9] = second compound 0.1 µM, first compound 0.316 µM
[10] = second compound 0.1 µM, first compound 1 µM
[11] = second compound 0.1 µM, first compound 3.16 µM
[12] = second compound 0.1 µM, first compound 10 µM
[13] = second compound 0.316 µM, first compound 0.0316 µM
[14] = second compound 0.316 µM, first compound 0.1 µM
[15] = second compound 0.316 µM, first compound 0.316 µM
[16] = second compound 0.316 µM, first compound 1 µM
[17] = second compound 0.316 µM, first compound 3.16 µM
[18] = second compound 0.316 µM, first compound 10 µM
[19] = second compound 1 µM, first compound 0.0316 µM
[20] = second compound 1 µM, first compound 0.1 µM
[21] = second compound 1 µM, first compound 0.316 µM
[22] = second compound 1 µM, first compound 1 µM
[23] = second compound 1 µM, first compound 3.16 µM
[24] = second compound 1 µM, first compound 10 µM
[25] = second compound 3.16 µM, first compound 0.0316 µM
[26] = second compound 3.16 µM, first compound 0.1 µM
[27] = second compound 3.16 µM, first compound 0.316 µM
[28] = second compound 3.16 µM, first compound 1 µM
[29] = second compound 3.16 µM, first compound 3.16 µM
[30] = second compound 3.16 µM, first compound 10 µM
[31] = second compound 10 µM, first compound 0.0316 µM
[32] = second compound 10 µM, first compound 0.1 µM
[33] = second compound 10 µM, first compound 0.316 µM
[34] = second compound 10 µM, first compound 1 µM
[35] = second compound 10 µM, first compound 3.16 µM
[36] = second compound 10 µM, first compound 10 µM
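Also: spheroids exposed to compounds for 7 days before readout.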

Question: Which IC50 (second compound 0.0316 µM) does the source give for CC1COCCN1c1cc(-c2ccnn2C)c2ccnc(-c3ccn[nH]3)c2n1 (centres undefined) + CN(C)c1ccc(Nc2c3ccc(NC(=O)CCN4CCCC4)cc3nc3cc(NC(=O)CCN4CCCC4)ccc23)cc1 here?
Answer: The IC50 was 1270 nM.

Question: What about the IC50 (second compound 0.1 µM) of the same compound?
Answer: Its IC50 is 1060 nM.

Question: And the IC50 (second compound 0.316 µM)?
Answer: Its IC50 is 789 nM.

Question: And the IC50 (second compound 1 µM)?
Answer: The IC50 was 654 nM.

Question: And the IC50 (second compound 3.16 µM)?
Answer: Its IC50 is 590 nM.

Question: And the IC50 (second compound 10 µM)?
Answer: The IC50 was 555 nM.

Question: And the viability, T/C [1]?
Answer: The viability, T/C was 103%.

Question: And the viability, T/C [2]?
Answer: The viability, T/C was 84.2%.

Question: What about the viability, T/C [3] of the same compound?
Answer: Its viability, T/C is 61.7%.

Question: What about the viability, T/C [4] of the same compound?
Answer: Its viability, T/C is 53.9%.

Question: And the viability, T/C [5]?
Answer: Its viability, T/C is 44.4%.

Question: What about the viability, T/C [6] of the same compound?
Answer: Its viability, T/C is 29%.

Question: And the viability, T/C [7]?
Answer: The viability, T/C was 106%.

Question: What about the viability, T/C [8] of the same compound?
Answer: The viability, T/C was 77%.

Question: And the viability, T/C [9]?
Answer: Its viability, T/C is 66%.

Question: What about the viability, T/C [10] of the same compound?
Answer: The viability, T/C was 53.5%.

Question: And the viability, T/C [11]?
Answer: The viability, T/C was 40.1%.

Question: And the viability, T/C [12]?
Answer: Its viability, T/C is 30.6%.

Question: What about the viability, T/C [13] of the same compound?
Answer: The viability, T/C was 93.9%.

Question: And the viability, T/C [14]?
Answer: The viability, T/C was 78%.

Question: And the viability, T/C [15]?
Answer: The viability, T/C was 59.4%.

Question: And the viability, T/C [16]?
Answer: The viability, T/C was 46.6%.

Question: What about the viability, T/C [17] of the same compound?
Answer: The viability, T/C was 38.4%.

Question: And the viability, T/C [18]?
Answer: The viability, T/C was 27.5%.

Question: And the viability, T/C [19]?
Answer: The viability, T/C was 90.8%.

Question: And the viability, T/C [20]?
Answer: Its viability, T/C is 77.1%.

Question: What about the viability, T/C [21] of the same compound?
Answer: Its viability, T/C is 51.7%.

Question: What about the viability, T/C [22] of the same compound?
Answer: The viability, T/C was 48.2%.

Question: What about the viability, T/C [23] of the same compound?
Answer: The viability, T/C was 37.2%.

Question: What about the viability, T/C [24] of the same compound?
Answer: Its viability, T/C is 27.2%.

Question: And the viability, T/C [25]?
Answer: Its viability, T/C is 87.4%.

Question: What about the viability, T/C [26] of the same compound?
Answer: The viability, T/C was 65.2%.

Question: And the viability, T/C [27]?
Answer: Its viability, T/C is 53.9%.

Question: What about the viability, T/C [28] of the same compound?
Answer: The viability, T/C was 46.9%.

Question: What about the viability, T/C [29] of the same compound?
Answer: Its viability, T/C is 38.5%.

Question: And the viability, T/C [30]?
Answer: Its viability, T/C is 22.4%.

Question: And the viability, T/C [31]?
Answer: The viability, T/C was 77.2%.

Question: And the viability, T/C [32]?
Answer: The viability, T/C was 66.6%.

Question: And the viability, T/C [33]?
Answer: The viability, T/C was 57.1%.

Question: What about the viability, T/C [34] of the same compound?
Answer: Its viability, T/C is 42.1%.

Question: What about the viability, T/C [35] of the same compound?
Answer: Its viability, T/C is 32.4%.

Question: What about the viability, T/C [36] of the same compound?
Answer: Its viability, T/C is 17.7%.

Question: How did the IC50 (second compound 0.0316 µM) turn out when C=CCn1c(=O)c2cnc(Nc3ccc(N4CCN(C)CC4)cc3)nc2n1-c1cccc(C(C)(C)O)n1 + Cc1cnc(CNC(=O)c2c(=O)c3ccc(N4CCCN(C)CC4)nc3n3c2sc2ccccc23)cn1 was run?
Answer: Its IC50 is 619 nM.

Question: And the IC50 (second compound 0.1 µM)?
Answer: The IC50 was 299 nM.

Question: And the IC50 (second compound 0.316 µM)?
Answer: Its IC50 is 400 nM.

Question: And the IC50 (second compound 1 µM)?
Answer: The IC50 was 360 nM.

Question: And the IC50 (second compound 3.16 µM)?
Answer: The IC50 was 162 nM.

Question: And the IC50 (second compound 10 µM)?
Answer: Its IC50 is 68.3 nM.

Question: What about the viability, T/C [1] of the same compound?
Answer: The viability, T/C was 88.6%.

Question: What about the viability, T/C [2] of the same compound?
Answer: Its viability, T/C is 75.3%.

Question: And the viability, T/C [3]?
Answer: Its viability, T/C is 64.8%.

Question: What about the viability, T/C [4] of the same compound?
Answer: Its viability, T/C is 37.5%.

Question: And the viability, T/C [5]?
Answer: The viability, T/C was 37.9%.

Question: What about the viability, T/C [6] of the same compound?
Answer: Its viability, T/C is 38.4%.

Question: What about the viability, T/C [7] of the same compound?
Answer: The viability, T/C was 78.4%.

Question: What about the viability, T/C [8] of the same compound?
Answer: Its viability, T/C is 67.8%.

Question: What about the viability, T/C [9] of the same compound?
Answer: Its viability, T/C is 50.2%.

Question: What about the viability, T/C [10] of the same compound?
Answer: Its viability, T/C is 37%.

Question: What about the viability, T/C [11] of the same compound?
Answer: The viability, T/C was 37%.

Question: And the viability, T/C [12]?
Answer: The viability, T/C was 38.5%.

Question: What about the viability, T/C [13] of the same compound?
Answer: Its viability, T/C is 73%.

Question: And the viability, T/C [14]?
Answer: The viability, T/C was 72.1%.

Question: And the viability, T/C [15]?
Answer: Its viability, T/C is 52.6%.

Question: And the viability, T/C [16]?
Answer: Its viability, T/C is 39.8%.

Question: And the viability, T/C [17]?
Answer: The viability, T/C was 39.5%.

Question: What about the viability, T/C [18] of the same compound?
Answer: Its viability, T/C is 40.5%.

Question: And the viability, T/C [19]?
Answer: Its viability, T/C is 65.2%.

Question: What about the viability, T/C [20] of the same compound?
Answer: The viability, T/C was 64.4%.

Question: And the viability, T/C [21]?
Answer: The viability, T/C was 51.2%.

Question: And the viability, T/C [22]?
Answer: The viability, T/C was 40.6%.

Question: And the viability, T/C [23]?
Answer: Its viability, T/C is 42.4%.

Question: What about the viability, T/C [24] of the same compound?
Answer: The viability, T/C was 38.2%.

Question: What about the viability, T/C [25] of the same compound?
Answer: Its viability, T/C is 62.8%.

Question: What about the viability, T/C [26] of the same compound?
Answer: The viability, T/C was 56.3%.

Question: What about the viability, T/C [27] of the same compound?
Answer: Its viability, T/C is 44.5%.

Question: What about the viability, T/C [28] of the same compound?
Answer: Its viability, T/C is 37.3%.

Question: What about the viability, T/C [29] of the same compound?
Answer: The viability, T/C was 39.1%.

Question: What about the viability, T/C [30] of the same compound?
Answer: The viability, T/C was 35.1%.

Question: What about the viability, T/C [31] of the same compound?
Answer: Its viability, T/C is 57.3%.

Question: What about the viability, T/C [32] of the same compound?
Answer: Its viability, T/C is 46.8%.

Question: And the viability, T/C [33]?
Answer: Its viability, T/C is 38.6%.

Question: What about the viability, T/C [34] of the same compound?
Answer: Its viability, T/C is 32.6%.

Question: And the viability, T/C [35]?
Answer: Its viability, T/C is 36.7%.

Question: And the viability, T/C [36]?
Answer: Its viability, T/C is 27.8%.

— PubChem BioAssay AID2060499 (Molecular Pharmacology Branch, DTP, NCI, 2025)
